Reference: publication PMC3639963, “A New Class of Small Molecule Inhibitor of BMP Signaling” (PLoS ONE, 2013)

Assays:
Assay in all cases: Nanosyn kinase profiling
Assay type in all cases: biochemical
Conditions in all cases: read-out: Percentage inhibition; for inhibition at 0.1 µM: 0.1 µM inhibitor; for inhibition at 1 µM: 1 µM inhibitor
[1] = biological target: T1, MST4 (Homo sapiens, UniProt Q9P289)
T1 construct: purchased Nanosyn (enzymatic panel); SGC in-house recombinant human kinases (DSF panel); Invitrogen (ALK1-6)
Method in brief: (§1)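 Percent inhibition of each kinase was measured with the inhibitor at 0.1 µM and at 1 µM, as part of a 200-kinase human selectivity panel.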

[2] = biological target: T2, ROS (Homo sapiens, UniProt P08922)
T2 construct: purchased Nanosyn (enzymatic panel); SGC in-house recombinant human kinases (DSF panel); Invitrogen (ALK1-6)
Method in brief: as §1

[3] = biological target: T3, PKCθ (Homo sapiens, UniProt Q04759)
T3 construct: purchased Nanosyn (enzymatic panel); SGC in-house recombinant human kinases (DSF panel); Invitrogen (ALK1-6)
Method in brief: as §1

[4] = biological target: T4, EPHB4 (Homo sapiens, UniProt P54760)
T4 construct: purchased Nanosyn (enzymatic panel); SGC in-house recombinant human kinases (DSF panel); Invitrogen (ALK1-6)
T4 sequence (P54760 16-987): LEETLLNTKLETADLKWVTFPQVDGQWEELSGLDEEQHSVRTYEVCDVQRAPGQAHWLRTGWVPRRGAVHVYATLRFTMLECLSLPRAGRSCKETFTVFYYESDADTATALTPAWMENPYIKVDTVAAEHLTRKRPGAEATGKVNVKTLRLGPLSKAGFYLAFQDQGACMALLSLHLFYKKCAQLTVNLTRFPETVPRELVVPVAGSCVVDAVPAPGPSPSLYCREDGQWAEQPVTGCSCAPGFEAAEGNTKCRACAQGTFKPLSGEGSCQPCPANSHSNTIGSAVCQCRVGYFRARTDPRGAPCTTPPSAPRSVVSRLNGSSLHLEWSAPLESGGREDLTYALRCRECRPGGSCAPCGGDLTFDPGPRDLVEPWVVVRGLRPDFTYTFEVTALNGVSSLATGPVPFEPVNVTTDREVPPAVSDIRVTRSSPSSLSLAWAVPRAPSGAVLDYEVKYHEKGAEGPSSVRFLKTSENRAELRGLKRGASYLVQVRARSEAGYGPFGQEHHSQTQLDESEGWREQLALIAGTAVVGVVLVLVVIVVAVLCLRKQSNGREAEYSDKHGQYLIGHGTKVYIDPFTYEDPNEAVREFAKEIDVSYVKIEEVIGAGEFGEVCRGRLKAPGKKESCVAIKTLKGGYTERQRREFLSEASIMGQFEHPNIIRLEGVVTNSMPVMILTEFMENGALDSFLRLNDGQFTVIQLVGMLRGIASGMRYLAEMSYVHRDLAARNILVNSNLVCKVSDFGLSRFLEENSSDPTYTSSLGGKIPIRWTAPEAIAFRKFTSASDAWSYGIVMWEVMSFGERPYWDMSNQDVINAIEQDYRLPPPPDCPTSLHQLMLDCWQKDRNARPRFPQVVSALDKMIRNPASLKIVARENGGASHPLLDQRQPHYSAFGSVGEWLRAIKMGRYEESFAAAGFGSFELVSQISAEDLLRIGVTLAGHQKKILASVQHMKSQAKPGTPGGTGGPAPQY
Method in brief: as §1

[5] = biological target: T5, IKK-β (Homo sapiens, UniProt O14920)
T5 construct: purchased Nanosyn (enzymatic panel); SGC in-house recombinant human kinases (DSF panel); Invitrogen (ALK1-6)
T5 sequence (O14920 1-756): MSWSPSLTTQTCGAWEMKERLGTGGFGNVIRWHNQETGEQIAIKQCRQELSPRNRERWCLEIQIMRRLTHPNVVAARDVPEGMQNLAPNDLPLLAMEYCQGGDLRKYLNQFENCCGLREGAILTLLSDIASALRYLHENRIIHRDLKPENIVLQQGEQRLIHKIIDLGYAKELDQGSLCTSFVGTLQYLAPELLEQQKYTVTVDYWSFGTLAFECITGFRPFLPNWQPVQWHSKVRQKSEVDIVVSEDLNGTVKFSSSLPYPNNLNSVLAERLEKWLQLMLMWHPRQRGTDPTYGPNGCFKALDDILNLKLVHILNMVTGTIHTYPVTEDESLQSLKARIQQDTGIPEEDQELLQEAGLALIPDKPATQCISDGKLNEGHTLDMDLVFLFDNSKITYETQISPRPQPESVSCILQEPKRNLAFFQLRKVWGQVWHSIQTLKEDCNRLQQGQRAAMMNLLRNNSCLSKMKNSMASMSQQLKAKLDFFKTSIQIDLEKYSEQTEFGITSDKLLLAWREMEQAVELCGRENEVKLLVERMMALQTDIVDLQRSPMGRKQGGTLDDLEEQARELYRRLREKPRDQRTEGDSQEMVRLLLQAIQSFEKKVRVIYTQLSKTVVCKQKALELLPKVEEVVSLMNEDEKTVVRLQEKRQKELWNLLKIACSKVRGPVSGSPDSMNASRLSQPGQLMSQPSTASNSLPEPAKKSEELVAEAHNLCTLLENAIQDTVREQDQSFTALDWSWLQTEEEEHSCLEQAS
Method in brief: as §1

[6] = biological target: T6, DDR2 (Homo sapiens, UniProt Q16832)
T6 construct: purchased Nanosyn (enzymatic panel); SGC in-house recombinant human kinases (DSF panel); Invitrogen (ALK1-6)
T6 sequence (Q16832 22-855): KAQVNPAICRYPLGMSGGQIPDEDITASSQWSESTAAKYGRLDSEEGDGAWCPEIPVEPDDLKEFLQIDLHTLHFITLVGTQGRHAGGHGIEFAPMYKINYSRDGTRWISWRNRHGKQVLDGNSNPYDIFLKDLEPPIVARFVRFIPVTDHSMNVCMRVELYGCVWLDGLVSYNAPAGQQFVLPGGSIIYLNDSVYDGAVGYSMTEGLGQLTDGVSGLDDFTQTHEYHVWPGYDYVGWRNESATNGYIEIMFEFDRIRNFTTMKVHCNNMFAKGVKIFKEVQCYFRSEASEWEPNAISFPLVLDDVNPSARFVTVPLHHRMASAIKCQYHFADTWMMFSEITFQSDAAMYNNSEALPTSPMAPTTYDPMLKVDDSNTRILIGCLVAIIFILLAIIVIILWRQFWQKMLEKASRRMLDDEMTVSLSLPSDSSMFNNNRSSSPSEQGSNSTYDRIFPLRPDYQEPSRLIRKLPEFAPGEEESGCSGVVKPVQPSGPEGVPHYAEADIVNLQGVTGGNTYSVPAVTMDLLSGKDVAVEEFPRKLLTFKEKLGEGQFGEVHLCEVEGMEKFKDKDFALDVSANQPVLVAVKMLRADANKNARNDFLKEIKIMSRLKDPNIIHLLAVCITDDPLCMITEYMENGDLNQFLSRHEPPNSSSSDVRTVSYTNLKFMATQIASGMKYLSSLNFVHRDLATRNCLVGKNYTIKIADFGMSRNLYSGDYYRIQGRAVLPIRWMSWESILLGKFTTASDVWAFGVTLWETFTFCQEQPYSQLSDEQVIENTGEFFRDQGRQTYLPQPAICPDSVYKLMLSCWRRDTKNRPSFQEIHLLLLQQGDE
Method in brief: as §1

T3 sequence (Q04759 whole entry): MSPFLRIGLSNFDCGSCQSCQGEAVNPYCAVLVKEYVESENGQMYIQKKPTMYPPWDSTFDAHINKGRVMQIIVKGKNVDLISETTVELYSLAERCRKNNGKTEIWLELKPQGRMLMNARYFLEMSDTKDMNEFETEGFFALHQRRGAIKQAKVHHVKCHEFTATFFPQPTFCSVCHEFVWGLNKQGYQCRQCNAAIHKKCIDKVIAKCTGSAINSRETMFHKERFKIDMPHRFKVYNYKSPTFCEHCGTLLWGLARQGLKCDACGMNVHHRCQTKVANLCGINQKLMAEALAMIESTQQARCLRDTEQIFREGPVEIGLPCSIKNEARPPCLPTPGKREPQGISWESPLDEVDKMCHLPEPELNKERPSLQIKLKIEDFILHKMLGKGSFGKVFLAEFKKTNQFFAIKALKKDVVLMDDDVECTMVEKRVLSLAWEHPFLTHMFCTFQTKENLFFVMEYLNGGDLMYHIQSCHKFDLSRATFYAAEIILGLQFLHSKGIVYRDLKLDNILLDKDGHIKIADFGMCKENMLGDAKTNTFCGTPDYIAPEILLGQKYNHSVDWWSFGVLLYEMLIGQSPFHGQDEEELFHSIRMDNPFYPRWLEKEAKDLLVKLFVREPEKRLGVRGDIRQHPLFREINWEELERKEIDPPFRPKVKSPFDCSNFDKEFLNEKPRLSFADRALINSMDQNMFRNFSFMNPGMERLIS
T1 sequence (Q9P289 whole entry): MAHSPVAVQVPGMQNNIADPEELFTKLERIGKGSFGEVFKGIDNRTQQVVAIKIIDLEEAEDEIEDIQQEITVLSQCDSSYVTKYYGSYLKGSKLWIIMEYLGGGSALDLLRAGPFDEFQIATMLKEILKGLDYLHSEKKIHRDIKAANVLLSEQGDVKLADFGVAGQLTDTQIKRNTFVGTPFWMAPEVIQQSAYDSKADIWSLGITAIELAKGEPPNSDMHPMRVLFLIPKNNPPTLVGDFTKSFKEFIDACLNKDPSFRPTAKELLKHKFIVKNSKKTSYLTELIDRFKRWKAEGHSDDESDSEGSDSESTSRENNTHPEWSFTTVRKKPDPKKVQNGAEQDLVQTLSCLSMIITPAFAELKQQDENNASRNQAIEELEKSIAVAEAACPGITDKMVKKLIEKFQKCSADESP
T2 sequence (P08922 28-2347): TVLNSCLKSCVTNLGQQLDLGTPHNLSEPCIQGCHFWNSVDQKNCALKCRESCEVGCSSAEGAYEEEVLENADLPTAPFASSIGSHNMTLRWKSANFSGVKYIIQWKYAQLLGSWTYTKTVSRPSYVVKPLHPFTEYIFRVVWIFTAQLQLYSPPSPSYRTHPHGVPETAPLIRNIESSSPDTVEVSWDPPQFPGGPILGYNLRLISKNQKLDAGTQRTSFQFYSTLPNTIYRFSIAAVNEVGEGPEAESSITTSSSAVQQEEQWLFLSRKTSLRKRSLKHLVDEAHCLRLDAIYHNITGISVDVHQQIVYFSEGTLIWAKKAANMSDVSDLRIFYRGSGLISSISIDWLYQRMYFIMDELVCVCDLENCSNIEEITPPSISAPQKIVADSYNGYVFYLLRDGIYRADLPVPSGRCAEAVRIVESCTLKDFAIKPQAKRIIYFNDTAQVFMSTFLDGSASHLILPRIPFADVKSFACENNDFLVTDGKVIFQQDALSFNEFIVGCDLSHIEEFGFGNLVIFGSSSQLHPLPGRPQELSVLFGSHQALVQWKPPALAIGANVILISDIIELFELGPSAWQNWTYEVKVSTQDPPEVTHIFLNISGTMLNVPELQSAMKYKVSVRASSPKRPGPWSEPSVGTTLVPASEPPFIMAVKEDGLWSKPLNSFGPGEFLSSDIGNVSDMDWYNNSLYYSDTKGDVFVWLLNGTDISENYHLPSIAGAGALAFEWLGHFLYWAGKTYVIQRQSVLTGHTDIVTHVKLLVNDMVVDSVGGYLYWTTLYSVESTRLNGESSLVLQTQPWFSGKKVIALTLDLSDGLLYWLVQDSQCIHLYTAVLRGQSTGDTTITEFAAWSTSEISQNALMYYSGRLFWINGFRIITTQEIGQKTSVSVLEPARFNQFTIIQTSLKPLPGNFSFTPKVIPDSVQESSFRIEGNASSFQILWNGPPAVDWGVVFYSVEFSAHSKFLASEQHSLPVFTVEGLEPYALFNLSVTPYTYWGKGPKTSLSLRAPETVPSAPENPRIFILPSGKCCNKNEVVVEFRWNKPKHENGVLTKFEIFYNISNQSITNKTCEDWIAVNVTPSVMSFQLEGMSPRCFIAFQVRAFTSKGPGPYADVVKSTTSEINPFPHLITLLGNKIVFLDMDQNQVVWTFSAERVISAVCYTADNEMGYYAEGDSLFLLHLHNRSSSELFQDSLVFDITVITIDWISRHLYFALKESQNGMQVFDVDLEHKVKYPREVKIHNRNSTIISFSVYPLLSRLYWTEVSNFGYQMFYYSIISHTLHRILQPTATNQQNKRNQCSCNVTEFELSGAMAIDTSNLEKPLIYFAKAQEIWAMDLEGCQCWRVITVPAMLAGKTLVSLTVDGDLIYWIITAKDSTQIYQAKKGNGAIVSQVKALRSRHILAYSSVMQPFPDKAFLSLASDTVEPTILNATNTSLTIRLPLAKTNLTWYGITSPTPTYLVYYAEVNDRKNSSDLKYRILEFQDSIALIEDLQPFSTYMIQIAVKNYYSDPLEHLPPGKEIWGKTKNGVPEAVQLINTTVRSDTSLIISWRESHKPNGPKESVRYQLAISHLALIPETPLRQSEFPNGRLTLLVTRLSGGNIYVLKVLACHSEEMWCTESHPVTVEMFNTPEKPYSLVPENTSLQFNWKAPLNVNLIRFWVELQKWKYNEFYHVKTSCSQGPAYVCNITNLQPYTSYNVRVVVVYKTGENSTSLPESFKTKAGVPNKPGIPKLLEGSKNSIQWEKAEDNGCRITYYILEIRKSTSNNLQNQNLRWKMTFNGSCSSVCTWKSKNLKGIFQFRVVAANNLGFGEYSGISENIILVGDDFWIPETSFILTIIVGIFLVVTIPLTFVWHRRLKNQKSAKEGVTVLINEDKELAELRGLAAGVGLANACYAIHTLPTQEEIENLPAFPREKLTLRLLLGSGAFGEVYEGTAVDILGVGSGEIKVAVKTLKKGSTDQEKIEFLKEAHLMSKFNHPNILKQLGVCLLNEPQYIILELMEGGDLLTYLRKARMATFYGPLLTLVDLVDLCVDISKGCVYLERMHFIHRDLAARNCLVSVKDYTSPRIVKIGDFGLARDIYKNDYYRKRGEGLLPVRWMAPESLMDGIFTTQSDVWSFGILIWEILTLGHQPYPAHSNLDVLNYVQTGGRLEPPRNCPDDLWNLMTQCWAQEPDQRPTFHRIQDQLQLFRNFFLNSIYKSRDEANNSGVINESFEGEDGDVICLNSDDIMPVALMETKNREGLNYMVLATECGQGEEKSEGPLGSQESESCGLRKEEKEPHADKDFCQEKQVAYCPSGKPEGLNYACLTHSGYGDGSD

Q: Which results are given for COc1cc(-c2cc(-c3cccc(O)c3)cnc2N)cc(OC)c1OC [K02288, 3-[6-amino-5-(3,4,5-trimethoxy-phenyl)-pyridin-3-yl]-phenol]?
A: inhibition at 0.1 µM [1]: 0.4%; inhibition at 1 µM [1]: 0%; inhibition at 0.1 µM [2]: 1.8%; inhibition at 1 µM [2]: 6.8%; inhibition at 0.1 µM [3]: 0%; inhibition at 1 µM [3]: 0.1%; inhibition at 0.1 µM [4]: 0%; inhibition at 1 µM [4]: 5.9%; inhibition at 0.1 µM [5]: -2%; inhibition at 1 µM [5]: 1.3%; inhibition at 0.1 µM [6]: 0%; inhibition at 1 µM [6]: 11%

Q: For c1ccc2c(-c3cnn4cc(-c5ccc(N6CCNCC6)cc5)cnc34)ccnc2c1 [LDN-193189], which inhibition at 0.1 µM [1] is on record?
A: -1%

Q: What about the inhibition at 1 µM [1] of the same compound?
A: -5%

Q: What about the inhibition at 0.1 µM [2] of the same compound?
A: 3.8%

Q: And the inhibition at 1 µM [2]?
A: 3.7%

Q: And the inhibition at 0.1 µM [3]?
A: 1.4%

Q: What about the inhibition at 1 µM [3] of the same compound?
A: 1.3%

Q: And the inhibition at 0.1 µM [4]?
A: -1%

Q: And the inhibition at 1 µM [4]?
A: 6.6%

Q: And the inhibition at 0.1 µM [5]?
A: 0.3%

Q: And the inhibition at 1 µM [5]?
A: 1.4%

Q: What about the inhibition at 0.1 µM [6] of the same compound?
A: 5.5%

Q: What about the inhibition at 1 µM [6] of the same compound?
A: 27%
